Values joined by “and” are separate entries in the source; they are usually repeats but may differ in a detail not shown here. Equal entries are not always repeated. Where two headings read alike, the source gives them in different places.
Key:
PfcProRS = target: T1, PfcProRS (Plasmodium falciparum, UniProt Q8I5R7); assay type: binding; conditions: for dose-response signal (normalized), SI Fig 8: single replicates
T1 construct: made in house; host or cells: E. coli SoluBL-21

P. falciparum Dd2-2D4 = assay: P. falciparum asexual blood stage (ABS) growth assay, SYBR Green, 72 h, wild-type parasites; assay type: cell-based, Plasmodium falciparum; conditions: Plasmodium falciparum, DD2; SI Fig 16b; values on -log scale; read-out: ABS - Dd2-2D4 (converted)
HsProRS = HsProRS (Homo sapiens, UniProt P07814); assay: TR-FRET ligand displacement assay with tracer MAT379 (CoraFluor-1-Halo and anti-His6 antibody formats); assay type: binding; parameters: made in house; host or cells: E. coli SoluBL-21; conditions: for TR-FRET dose-response, normalized signal (SI Fig 11): individual replicates
Chain of HsProRS (P07814 996-1512): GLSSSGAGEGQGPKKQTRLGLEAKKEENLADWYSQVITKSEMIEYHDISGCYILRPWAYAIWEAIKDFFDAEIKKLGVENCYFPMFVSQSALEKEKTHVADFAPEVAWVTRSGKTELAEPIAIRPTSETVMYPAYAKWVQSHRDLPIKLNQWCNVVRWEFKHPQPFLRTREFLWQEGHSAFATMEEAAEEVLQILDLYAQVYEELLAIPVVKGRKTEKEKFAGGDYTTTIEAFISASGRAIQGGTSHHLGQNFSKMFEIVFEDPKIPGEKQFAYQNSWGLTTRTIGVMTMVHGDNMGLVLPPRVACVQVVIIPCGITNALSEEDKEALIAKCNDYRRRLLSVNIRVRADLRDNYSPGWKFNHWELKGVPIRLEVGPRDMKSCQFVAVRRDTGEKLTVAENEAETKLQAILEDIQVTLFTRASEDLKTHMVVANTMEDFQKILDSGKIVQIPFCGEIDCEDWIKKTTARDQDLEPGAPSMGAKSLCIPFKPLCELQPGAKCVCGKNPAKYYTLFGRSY

T1 sequence (Q8I5R7 249-746): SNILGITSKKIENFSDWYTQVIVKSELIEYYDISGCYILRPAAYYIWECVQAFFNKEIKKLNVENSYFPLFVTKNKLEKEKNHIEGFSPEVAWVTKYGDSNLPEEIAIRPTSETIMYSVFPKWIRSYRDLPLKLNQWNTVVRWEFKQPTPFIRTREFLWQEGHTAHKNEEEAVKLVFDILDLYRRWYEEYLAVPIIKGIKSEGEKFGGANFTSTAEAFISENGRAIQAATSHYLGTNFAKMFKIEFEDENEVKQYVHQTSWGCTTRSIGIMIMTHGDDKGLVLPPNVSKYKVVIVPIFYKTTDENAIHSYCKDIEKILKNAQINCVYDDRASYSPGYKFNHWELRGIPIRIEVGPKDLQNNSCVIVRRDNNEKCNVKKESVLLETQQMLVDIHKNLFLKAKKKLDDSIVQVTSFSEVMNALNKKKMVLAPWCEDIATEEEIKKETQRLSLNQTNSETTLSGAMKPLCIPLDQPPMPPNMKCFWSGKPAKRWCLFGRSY

## NC1(C(=O)Nc2nccnc2C(=O)NC2Cc3ccccc3C2)CCCCC1 [compound 17]
PfcProRS; Log[inhibitor] (M) -5.000
  dose-response signal (normalized), SI Fig 8: -2.16E-02 and 3.35E-02 and 3.85E-02
PfcProRS; Log[inhibitor] (M) -5.301
  dose-response signal (normalized), SI Fig 8: 9.18E-02 and 6.95E-02 and 1.07E-01
PfcProRS; Log[inhibitor] (M) -5.601
  dose-response signal (normalized), SI Fig 8: 1.19E-01 and 1.25E-01 and 1.05E-01
PfcProRS; Log[inhibitor] (M) -5.904
  dose-response signal (normalized), SI Fig 8: 2.12E-01 and 2.21E-01 and 2.19E-01
PfcProRS; Log[inhibitor] (M) -6.208
  dose-response signal (normalized), SI Fig 8: 4.81E-01 and 4.00E-01 and 5.13E-01
PfcProRS; Log[inhibitor] (M) -6.509
  dose-response signal (normalized), SI Fig 8: 7.01E-01 and 7.64E-01 and 7.83E-01
PfcProRS; Log[inhibitor] (M) -6.796
  dose-response signal (normalized), SI Fig 8: 9.36E-01 and 8.53E-01 and 9.43E-01
PfcProRS; Log[inhibitor] (M) -7.108
  dose-response signal (normalized), SI Fig 8: 1.01E+00 and 9.81E-01 and 1.06E+00
PfcProRS; Log[inhibitor] (M) -7.409
  dose-response signal (normalized), SI Fig 8: 1.04E+00 and 9.85E-01 and 1.08E+00
PfcProRS; Log[inhibitor] (M) -7.710
  dose-response signal (normalized), SI Fig 8: 9.36E-01 and 1.05E+00 and 9.73E-01
PfcProRS; Log[inhibitor] (M) -8.000
  dose-response signal (normalized), SI Fig 8: 9.16E-01 and 9.94E-01 and 1.09E+00
PfcProRS; Log[inhibitor] (M) -8.301
  dose-response signal (normalized), SI Fig 8: 1.01E+00 and 9.14E-01 and 9.61E-01
PfcProRS; Log[inhibitor] (M) -8.602
  dose-response signal (normalized), SI Fig 8: 9.67E-01 and 1.05E+00 and 9.29E-01
PfcProRS; Log[inhibitor] (M) -9.000
  dose-response signal (normalized), SI Fig 8: 9.54E-01 and 9.96E-01 and 9.84E-01
PfcProRS; Log[inhibitor] (M) -9.301
  dose-response signal (normalized), SI Fig 8: 9.59E-01 and 9.29E-01 and 9.60E-01
PfcProRS; SI Fig 16a, values on -log scale
  PfcProRS -- best Kd: 6.883
P. falciparum Dd2-2D4
  EC50: 5.79 µM
HsProRS; HsProRS (KD [nM]) mean, no added proline/ATP (-)
  Kd: 4430 nM
HsProRS; HsProRS - best Kd, SI Fig 16a, values on -log scale
  Kd: 25.5 nM
HsProRS; Log[inhibitor] (M) -5.000
  normalized TR-FRET ligand displacement signal, dose-response replicates (SI Fig 6): 2.29E-01 and 2.88E-01 and 2.34E-01
  TR-FRET dose-response, normalized signal (SI Fig 11): 3.10E-01 and 3.50E-01 and 2.83E-01
HsProRS; Log[inhibitor] (M) -5.301
  normalized TR-FRET ligand displacement signal, dose-response replicates (SI Fig 6): 4.79E-01 and 4.33E-01 and 5.59E-01
  TR-FRET dose-response, normalized signal (SI Fig 11): 5.37E-01 (2×) and 4.61E-01
HsProRS; Log[inhibitor] (M) -5.601
  normalized TR-FRET ligand displacement signal, dose-response replicates (SI Fig 6): 7.03E-01 and 7.28E-01 and 7.31E-01
  TR-FRET dose-response, normalized signal (SI Fig 11): 6.81E-01 and 6.32E-01 and 7.28E-01
HsProRS; Log[inhibitor] (M) -5.904
  normalized TR-FRET ligand displacement signal, dose-response replicates (SI Fig 6): 9.55E-01 and 9.39E-01 and 8.52E-01
  TR-FRET dose-response, normalized signal (SI Fig 11): 7.93E-01 and 8.32E-01 and 8.75E-01
HsProRS; Log[inhibitor] (M) -6.208
  normalized TR-FRET ligand displacement signal, dose-response replicates (SI Fig 6): 9.44E-01 and 9.23E-01 and 8.86E-01
  TR-FRET dose-response, normalized signal (SI Fig 11): 9.35E-01 and 8.64E-01 and 9.27E-01
HsProRS; Log[inhibitor] (M) -6.509
  normalized TR-FRET ligand displacement signal, dose-response replicates (SI Fig 6): 9.47E-01 and 9.84E-01 and 9.68E-01
  TR-FRET dose-response, normalized signal (SI Fig 11): 8.93E-01 and 9.27E-01 and 9.36E-01
HsProRS; Log[inhibitor] (M) -6.796
  normalized TR-FRET ligand displacement signal, dose-response replicates (SI Fig 6): 9.18E-01 and 9.88E-01 and 9.43E-01
  TR-FRET dose-response, normalized signal (SI Fig 11): 9.97E-01 and 9.65E-01 and 9.84E-01
HsProRS; Log[inhibitor] (M) -7.108
  normalized TR-FRET ligand displacement signal, dose-response replicates (SI Fig 6): 9.90E-01 and 9.75E-01 and 9.07E-01
  TR-FRET dose-response, normalized signal (SI Fig 11): 9.67E-01 and 9.70E-01 and 9.86E-01
HsProRS; Log[inhibitor] (M) -7.409
  normalized TR-FRET ligand displacement signal, dose-response replicates (SI Fig 6): 1.03E+00 and 1.00E+00 and 1.02E+00
  TR-FRET dose-response, normalized signal (SI Fig 11): 9.20E-01 and 9.49E-01 and 9.94E-01
HsProRS; Log[inhibitor] (M) -7.710
  normalized TR-FRET ligand displacement signal, dose-response replicates (SI Fig 6): 1.02E+00 and 9.03E-01 and 1.03E+00
  TR-FRET dose-response, normalized signal (SI Fig 11): 9.99E-01 and 9.64E-01 and 1.05E+00
HsProRS; Log[inhibitor] (M) -8.000
  normalized TR-FRET ligand displacement signal, dose-response replicates (SI Fig 6): 1.01E+00 and 9.27E-01 and 9.75E-01
  TR-FRET dose-response, normalized signal (SI Fig 11): 1.01E+00 and 9.57E-01 and 9.53E-01
HsProRS; Log[inhibitor] (M) -8.301
  normalized TR-FRET ligand displacement signal, dose-response replicates (SI Fig 6): 1.01E+00 and 1.00E+00 and 1.05E+00
  TR-FRET dose-response, normalized signal (SI Fig 11): 9.70E-01 and 9.81E-01 and 1.01E+00
HsProRS; Log[inhibitor] (M) -8.602
  normalized TR-FRET ligand displacement signal, dose-response replicates (SI Fig 6): 9.94E-01 and 1.05E+00 and 1.03E+00
  TR-FRET dose-response, normalized signal (SI Fig 11): 9.48E-01 and 9.63E-01 and 9.29E-01
HsProRS; Log[inhibitor] (M) -9.000
  normalized TR-FRET ligand displacement signal, dose-response replicates (SI Fig 6): 9.41E-01 and 1.01E+00 and 9.67E-01
  TR-FRET dose-response, normalized signal (SI Fig 11): 9.46E-01 and 9.80E-01 and 9.64E-01
HsProRS; Log[inhibitor] (M) -9.301
  normalized TR-FRET ligand displacement signal, dose-response replicates (SI Fig 6): 1.02E+00 and 9.62E-01 and 8.95E-01
  TR-FRET dose-response, normalized signal (SI Fig 11): 9.77E-01 (2×) and 9.15E-01

— paper PMC9403976, “Elucidating the path to Plasmodium prolyl-tRNA synthetase inhibitors that overcome halofuginone resistance” (Nature Communications, 2022)
